# Activity calls are given as the source filed them. The calls are words filed in the database; no cut-off is given here.
# Assays:
# [1] = system: HeLa; experiment: Induction of apoptosis in human HeLa cells assessed as viable cells level at 100 nM incubated for 48 hrs by Annexin-V/FITC and propidium iodide staining based flow cytometry (reference value: 99.72%); assay type: functional
# [2] = system: HepG2; experiment: Antiproliferative activity against human HepG2 cells incubated for 48 hrs by MTT assay; assay type: functional, cell-based; conditions: HepG2, 48 h
# [3] = system: HeLa; experiment: Induction of apoptosis in human HeLa cells assessed as early apoptotic cells level at 500 nM incubated for 48 hrs by Annexin-V/FITC and propidium iodide staining based flow cytometry (reference value: 0.16%); assay type: functional
# [4] = system: HeLa; experiment: Induction of apoptosis in human HeLa cells assessed as early apoptotic cells level at 50 nM incubated for 72 hrs by Annexin-V/FITC and propidium iodide staining based flow cytometry (reference value: 0.16%); assay type: functional
# [5] = system: HeLa; experiment: Induction of cell cycle arrest in human HeLa cells assessed as induction of disappearance of G2/M phase at 500 nM incubated for 48 hrs by propidium iodide staining based flow cytometry; assay type: functional
# [6] = system: HeLa; experiment: Induction of apoptosis in human HeLa cells assessed as necrotic cells level at 500 nM incubated for 72 hrs by Annexin-V/FITC and propidium iodide staining based flow cytometry (reference value: 0.03%); assay type: functional
# [7] = system: HeLa; experiment: Inhibition of tubulin polymerization in human HeLa cells assessed as morphological changes by measuring spindle microtubule dis-organisation at 0.5 uM incubated for 24 hrs by laser scanning confocal microscopy; assay type: functional, cell-based
# [8] = system: HeLa; experiment: Induction of apoptosis in human HeLa cells assessed as viable cells level at 50 nM incubated for 48 hrs by Annexin-V/FITC and propidium iodide staining based flow cytometry (reference value: 99.72%); assay type: functional
# [9] = system: HeLa; experiment: Induction of apoptosis in human HeLa cells assessed as early apoptotic cells level at 500 nM incubated for 72 hrs by Annexin-V/FITC and propidium iodide staining based flow cytometry (reference value: 0.16%); assay type: functional
# [10] = system: HCT-116; experiment: Antiproliferative activity against human HCT116 cells incubated for 48 hrs by MTT assay; assay type: functional, cell-based; conditions: HCT-116, 48 h
# [11] = system: HeLa; experiment: Induction of apoptosis in human HeLa cells assessed as necrotic cells level at 50 nM incubated for 48 hrs by Annexin-V/FITC and propidium iodide staining based flow cytometry (reference value: 0.03%); assay type: functional
# [12] = system: HeLa; experiment: Induction of mitochondrial transmembrane potential loss in human HeLa cells assessed as JC1 dye aggregates level at 50 nM incubated for 24 hrs by JC1 staining based flow cytometry (reference value: 95.85%); assay type: functional
# [13] = system: HeLa; experiment: Induction of apoptosis in human HeLa cells assessed as viable cells level at 500 nM incubated for 72 hrs by Annexin-V/FITC and propidium iodide staining based flow cytometry (reference value: 99.72%); assay type: functional
# [14] = system: HeLa; experiment: Induction of apoptosis in human HeLa cells assessed as late apoptotic cells level at 100 nM incubated for 48 hrs by Annexin-V/FITC and propidium iodide staining based flow cytometry (reference value: 0.02%); assay type: functional
# [15] = system: HeLa; experiment: Antiproliferative activity against human HeLa cells incubated for 48 hrs by MTT assay; assay type: functional, cell-based
compound,measurement,setting,value
COc1ccc(N(C)c2cc(C)nc(C)n2)cc1O,Activity,[1],76.71%
same,IC50,[2],112 nM
same,Activity,[3],69.81%
same,Activity,[4],9.78%
same,Activity,[5],Active
same,Activity,[6],3.54%
same,inhibition,[7],Active
same,Activity,[8],89.56%
same,Activity,[9],66.08%
same,IC50,[10],126 nM
same,Activity,[11],0.01%
same,Activity,[12],88.35%
same,Activity,[13],11.77%
same,Activity,[14],0.05%
same,IC50,[15],93 nM

# From ChEMBL document CHEMBL4190378, “Synthesis and evaluation of new 2-chloro-4-aminopyrimidine and 2,6-dimethyl-4-aminopyrimidine derivatives as tubulin polymerization inhibitors” (Bioorg Med Chem Lett, 2018)
